In PubChem BioAssay (NCI):
Several values for one entry are separate records, joined by “and”; a condition that tells them apart may be missing. Equal values may be shown once.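 Exposure lasted 48 hours, with cells grown in 96-well plates and compounds tested at five concentrations. Abbreviation: GI50, concentration required for 50% inhibition of growth. TGI: concentration producing complete growth inhibition.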 *1 amine or outer side, *2 acyl side, *3 side chain or, on linkers, in order; H or OH if unused. Where a SMILES comes first, the peptide text is derived from it. Bridges are numbered along the chain shown (N, C = ends). Roman numbers before positions name the chains, in order. [ ]: non-standard residue; d: D form. Actinocin(1to9) = Cc1c2oc3c(C)ccc(C(=O)[*:2])c3nc-2c(C(=O)[*:1])c(N)c1=O; NMeV = CN[CH](C(=O)O)C(C)C; Sar = CNCC(=O)O

Legend:
Experiment in all cases: NCI tumour cell line growth inhibition, 48 h; in the data active = GI50 below about 0.43 µM; inactive = the rest
HCT-116 colon = tested on: HCT-116 colon
SNB-19 CNS = tested on: SNB-19 CNS
SF-295 CNS = tested on: SF-295 CNS
MALME-3M melanoma = tested on: MALME-3M melanoma
EKVX NSCLC = tested on: EKVX NSCLC
OVCAR-5 ovarian = tested on: OVCAR-5 ovarian
OVCAR-8 ovarian = tested on: OVCAR-8 ovarian
OVCAR-4 ovarian = tested on: OVCAR-4 ovarian
PC-3 prostate = tested on: PC-3 prostate
CAKI-1 renal = tested on: CAKI-1 renal
UACC-257 melanoma = tested on: UACC-257 melanoma
UACC-62 melanoma = tested on: UACC-62 melanoma
TK-10 renal = tested on: TK-10 renal
OVCAR-3 ovarian = tested on: OVCAR-3 ovarian
KM12 colon = tested on: KM12 colon
HT29 colon = tested on: HT29 colon
ACHN renal = tested on: ACHN renal
IGROV1 ovarian = tested on: IGROV1 ovarian
BT-549 breast = tested on: BT-549 breast
CCRF-CEM leukemia = tested on: CCRF-CEM leukemia
COLO 205 colon = tested on: COLO 205 colon
NCI-H460 lung = tested on: NCI-H460 lung
NCI-H23 lung = tested on: NCI-H23 lung
LOX IMVI melanoma = tested on: LOX IMVI melanoma
RXF 393 renal = tested on: RXF 393 renal
HOP-62 NSCLC = tested on: HOP-62 NSCLC
HCT-15 colon = tested on: HCT-15 colon
SK-MEL-5 melanoma = tested on: SK-MEL-5 melanoma
U251 CNS = tested on: U251 CNS
UO-31 renal = tested on: UO-31 renal
MDA-MB-231 breast = tested on: MDA-MB-231 breast
SF-539 CNS = tested on: SF-539 CNS
DU-145 prostate = tested on: DU-145 prostate
SN12C renal = tested on: SN12C renal
SW-620 colon = tested on: SW-620 colon
MDA-N = tested on: MDA-N
T-47D breast = tested on: T-47D breast
SNB-75 CNS = tested on: SNB-75 CNS
SK-MEL-28 melanoma = tested on: SK-MEL-28 melanoma
MOLT-4 leukemia = tested on: MOLT-4 leukemia
A549 NSCLC = tested on: A549 NSCLC
SK-OV-3 ovarian = tested on: SK-OV-3 ovarian
NCI/ADR-RES ovarian = tested on: NCI/ADR-RES ovarian
K-562 leukemia = tested on: K-562 leukemia
MCF7 breast = tested on: MCF7 breast
SF-268 CNS = tested on: SF-268 CNS
HS 578T breast = tested on: HS 578T breast
M14 melanoma = tested on: M14 melanoma
MDA-MB-435 = tested on: MDA-MB-435
RPMI-8226 leukemia = tested on: RPMI-8226 leukemia
SK-MEL-2 melanoma = tested on: SK-MEL-2 melanoma
SR leukemia = tested on: SR leukemia
NCI-H522 lung = tested on: NCI-H522 lung
A498 renal = tested on: A498 renal
786-0 renal = tested on: 786-0 renal
NCI-H226 lung = tested on: NCI-H226 lung
HOP-92 NSCLC = tested on: HOP-92 NSCLC
HCC-2998 colon = tested on: HCC-2998 colon
HL-60(TB) leukemia = tested on: HL-60(TB) leukemia

COc1ccc(CCn2ccc(C)n2)c(OC)c1
> 100 µM: TGI (HCT-116 colon) | TGI (SNB-19 CNS) | TGI (SF-295 CNS) | TGI (MALME-3M melanoma) | TGI (EKVX NSCLC) | TGI (OVCAR-5 ovarian) | TGI (OVCAR-8 ovarian) | TGI (OVCAR-4 ovarian) | TGI (PC-3 prostate) | TGI (CAKI-1 renal) | TGI (UACC-257 melanoma) | TGI (UACC-62 melanoma) | TGI (TK-10 renal) | TGI (OVCAR-3 ovarian) | TGI (KM12 colon) | TGI (HT29 colon) | TGI (ACHN renal) | TGI (IGROV1 ovarian) | TGI (BT-549 breast) | TGI (CCRF-CEM leukemia) | TGI (COLO 205 colon) | TGI (NCI-H460 lung) | TGI (NCI-H23 lung) | TGI (LOX IMVI melanoma) | TGI (RXF 393 renal) | TGI (HOP-62 NSCLC) | TGI (HCT-15 colon) | TGI (SK-MEL-5 melanoma) | TGI (U251 CNS) | TGI (UO-31 renal) | TGI (MDA-MB-231 breast) | TGI (SF-539 CNS) | TGI (DU-145 prostate) | TGI (SN12C renal) | TGI (SW-620 colon) | TGI (MDA-N) | TGI (T-47D breast) | TGI (SNB-75 CNS) | TGI (SK-MEL-28 melanoma) | TGI (MOLT-4 leukemia) | TGI (A549 NSCLC) | TGI (SK-OV-3 ovarian) | TGI (NCI/ADR-RES ovarian) | TGI (K-562 leukemia) | TGI (MCF7 breast) | TGI (SF-268 CNS) | TGI (HS 578T breast) | TGI (M14 melanoma) | TGI (MDA-MB-435)

O=C(O[C@H](/C=C/c1ccccc1)P1(=O)N(Cc2ccccc2)[C@H]2CCCC[C@@H]2N1Cc1ccccc1)c1ccccc1
88.7 µM: TGI (U251 CNS)
17 µM: TGI (HCT-116 colon)
18.6 µM: TGI (IGROV1 ovarian)
38.3 µM: TGI (UO-31 renal)
17.8 µM: TGI (RPMI-8226 leukemia)
11.6 µM: TGI (LOX IMVI melanoma)
25.6 µM: TGI (MALME-3M melanoma)
3.27 µM: TGI (COLO 205 colon)
> 100 µM: TGI (SNB-19 CNS) | TGI (SF-295 CNS) | TGI (EKVX NSCLC) | TGI (OVCAR-5 ovarian) | TGI (OVCAR-8 ovarian) | TGI (PC-3 prostate) | TGI (SR leukemia) | TGI (UACC-257 melanoma) | TGI (UACC-62 melanoma) | TGI (TK-10 renal) | TGI (OVCAR-3 ovarian) | TGI (HT29 colon) | TGI (NCI-H522 lung) | TGI (A498 renal) | TGI (ACHN renal) | TGI (BT-549 breast) | TGI (786-0 renal) | TGI (CCRF-CEM leukemia) | TGI (NCI-H460 lung) | TGI (HOP-62 NSCLC) | TGI (HCT-15 colon) | TGI (SF-539 CNS) | TGI (SW-620 colon) | TGI (MDA-N) | TGI (SK-MEL-28 melanoma) | TGI (A549 NSCLC) | TGI (SK-OV-3 ovarian) | TGI (NCI/ADR-RES ovarian) | TGI (K-562 leukemia) | TGI (MCF7 breast) | TGI (HCC-2998 colon) | TGI (SF-268 CNS) | TGI (HL-60(TB) leukemia) | TGI (HS 578T breast) | TGI (M14 melanoma)
48.3 µM: TGI (NCI-H23 lung)
5.86 µM: TGI (HOP-92 NSCLC)
5.93 µM: TGI (CAKI-1 renal)
4.1 µM: TGI (SK-MEL-5 melanoma)
3.86 µM: TGI (T-47D breast)
6.19 µM: TGI (SK-MEL-2 melanoma) | TGI (OVCAR-4 ovarian)
25.7 µM: TGI (MDA-MB-231 breast)
14.5 µM: TGI (SN12C renal)
46.2 µM: TGI (MDA-MB-435)
18.1 µM: TGI (KM12 colon)
7.85 µM: TGI (NCI-H226 lung)

CCOc1cc(CC[N+](C)(C)C)c2c(ccc3ccc(OC)c(OC)c32)c1OC
> 100 µM: TGI (HCT-116 colon) | TGI (SNB-19 CNS) | TGI (SF-295 CNS) | TGI (MALME-3M melanoma) | TGI (RPMI-8226 leukemia) | TGI (EKVX NSCLC) | TGI (OVCAR-8 ovarian) | TGI (PC-3 prostate) | TGI (SR leukemia) | TGI (CAKI-1 renal) | TGI (UACC-62 melanoma) | TGI (OVCAR-3 ovarian) | TGI (HT29 colon) | TGI (NCI-H522 lung) | TGI (ACHN renal) | TGI (IGROV1 ovarian) | TGI (BT-549 breast) | TGI (786-0 renal) | TGI (COLO 205 colon) | TGI (SK-MEL-5 melanoma) | TGI (U251 CNS) | TGI (UO-31 renal) | TGI (MDA-MB-231 breast) | TGI (DU-145 prostate) | TGI (SN12C renal) | TGI (SW-620 colon) | TGI (HOP-92 NSCLC) | TGI (MDA-N) | TGI (T-47D breast) | TGI (SNB-75 CNS) | TGI (SK-MEL-28 melanoma) | TGI (A549 NSCLC) | TGI (SK-OV-3 ovarian) | TGI (NCI/ADR-RES ovarian) | TGI (HCC-2998 colon) | TGI (SF-268 CNS) | TGI (M14 melanoma) | TGI (MDA-MB-435)

COc1ccc(CC2NC(=O)C(NC(=O)c3c4nc5c(C(=O)NC6C(=O)NC(Cc7ccc(OC)cc7)C(=O)N7CCCC7C(=O)N(C)CC(=O)N(C)C(C(C)C)C(=O)OC6C)ccc(C)c5oc-4c(C)c(=O)c3N)C(C)OC(=O)C(C(C)C)N(C)C(=O)CN(C)C(=O)C3CCCN3C2=O)cc1 (stereo not drawn) (I: TY(Me)P[Sar][NMeV] / II: TY(Me)P[Sar][NMeV]; ester I:1-I:C, II:1-II:C; linker I:N-II:N via Actinocin(1to9); configuration not given here)
0.0265 µM: TGI (MDA-MB-435)
0.0374 µM: TGI (MALME-3M melanoma)
0.355 µM and 0.212 µM: TGI (PC-3 prostate)
0.0705 µM: TGI (T-47D breast)
0.731 µM: TGI (MDA-MB-231 breast)
1.66 µM and 1.55 µM: TGI (ACHN renal)
0.0257 µM: TGI (SF-539 CNS)
0.0708 µM: TGI (K-562 leukemia)
0.0405 µM and 0.236 µM: TGI (HOP-62 NSCLC)
0.0242 µM: TGI (A498 renal)
0.0172 µM: TGI (COLO 205 colon) | TGI (SK-MEL-5 melanoma)
> 100 µM: TGI (SF-295 CNS)
< 0.001 µM: TGI (SR leukemia) | TGI (HL-60(TB) leukemia)
0.126 µM: TGI (NCI-H23 lung)
0.46 µM and 0.257 µM: TGI (UO-31 renal)
0.0253 µM: TGI (786-0 renal)
0.025 µM and 0.0737 µM: TGI (OVCAR-3 ovarian)
0.00628 µM and 0.0307 µM: TGI (UACC-62 melanoma)
0.265 µM: TGI (HS 578T breast)
0.306 µM: TGI (CAKI-1 renal)
0.0254 µM: TGI (BT-549 breast)
0.0174 µM and 0.0463 µM: TGI (HT29 colon)
0.0349 µM: TGI (UACC-257 melanoma)
0.0339 µM and 0.324 µM: TGI (SNB-75 CNS)
0.0418 µM: TGI (CCRF-CEM leukemia)
0.118 µM and 0.526 µM: TGI (SF-268 CNS)
3.43 µM and 0.539 µM: TGI (SNB-19 CNS)
0.0144 µM: TGI (LOX IMVI melanoma)
0.0876 µM: TGI (MDA-N)
0.49 µM and 0.224 µM: TGI (OVCAR-4 ovarian)
12.6 µM: TGI (SK-OV-3 ovarian)
3.27 µM and 0.862 µM: TGI (EKVX NSCLC)
0.0234 µM and 0.0235 µM: TGI (NCI-H522 lung)
0.00549 µM: TGI (SK-MEL-2 melanoma)
active: GI50 (EKVX NSCLC) 0.0514 µM | GI50 (OVCAR-5 ovarian) 0.0302 µM | GI50 (OVCAR-4 ovarian) 0.0138 µM | GI50 (OVCAR-3 ovarian) < 0.001 µM | GI50 (UO-31 renal) 0.0327 µM | GI50 (NCI-H226 lung) < 0.001 µM | GI50 (SNB-75 CNS) 0.0552 µM | GI50 (HCC-2998 colon) 0.013 µM | GI50 (SF-268 CNS) < 0.001 µM
0.135 µM: TGI (M14 melanoma)
0.0203 µM: TGI (RXF 393 renal)
0.0228 µM and 0.0527 µM: TGI (NCI-H226 lung)
0.419 µM and 0.67 µM: TGI (OVCAR-5 ovarian)
0.0843 µM: TGI (DU-145 prostate)
1.06 µM: TGI (KM12 colon)
